Experiment [1] relates to A549. The experiment is described as follows: Antiproliferative activity against human A549 cells assessed as inhibition of cell growth incubated for 48 hrs by MTT assay. It is filed as functional, cell-based. The settings on record: A549, 48 h. (Tetrazolium dyes change colour on reduction, which living cells bring about.)
The subject of experiment [2] is PC-9. The experiment is described as follows: Antiproliferative activity against human PC-9 cells assessed as inhibition of cell growth incubated for 48 hrs by MTT assay. The conditions noted are these: PC-9, 48 h. It is filed as functional, cell-based.
Experiment [3] can be described thus: Antiproliferative activity against human PC9 Gefitinib-resistant (GR) cell assessed as inhibition of cell growth incubated for 48 hrs by MTT assay. It is filed as functional, cell-based. The settings on record: Gefitinib-resistant PC9, 48 h.
Experiment [4] relates to PC-9. The experiment can be described thus: Antiproliferative activity against human PC-9 cells assessed as inhibition of cell growth incubated for 48 hrs in presence of evodiamine by MTT assay. It is filed as functional, cell-based. The conditions noted are these: PC-9, 48 h.
Experiment [5] in a line: Antiproliferative activity against human PC9 Gefitinib-resistant (GR) cell assessed as inhibition of cell growth incubated for 48 hrs in presence of evodiamine by MTT assay. It is filed as functional, cell-based. The conditions noted are these: Gefitinib-resistant PC9, 48 h.
Experiment [6] relates to PC-9. The experiment is described as follows: Antiproliferative activity against human PC-9 cells assessed as inhibition of cell growth incubated for 48 hrs in presence of 10-hydroxyl-evodiamine by MTT assay. It is filed as functional, cell-based. The settings on record: PC-9, 48 h.
Experiment [7] has as its system A549. The experiment can be described thus: Induction of apoptosis in human A549 cells assessed as viable cells at 10 uM incubated for 48 hrs by annexin V FITC and propidium iodide based flow cytometry (reference value: 95.6 %). It is filed as functional. The settings on record: read-out: Activity. (In general: In flow cytometry, cells or beads pass a laser one at a time.)

The subject of experiment [8] is A549. The experiment is described as follows: Induction of apoptosis in human A549 cells assessed as early apoptotic cells at 10 uM incubated for 48 hrs by annexin V FITC and propidium iodide based flow cytometry (reference value: 2.13 %). Type of experiment: functional.
Experiment [9] concerns A549. The experiment is described as follows: Induction of apoptosis in human A549 cells assessed as late apoptotic cells at 10 uM incubated for 48 hrs by annexin V FITC and propidium iodide based flow cytometry (reference value: 0.76 %). Type of experiment: functional.
In experiment [10] the test system is A549. The experiment is described as follows: Induction of apoptosis in human A549 cells assessed as necrotic cells at 10 uM incubated for 48 hrs by annexin V FITC and propidium iodide based flow cytometry (reference value: 1.49 %). It is filed as functional.
Experiment [11] has as its system A549. The experiment is described as follows: Induction of apoptosis in human A549 cells assessed as viable cells at 10 uM incubated for 48 hrs in presence of 10-hydroxyl-evodiamine by annexin V FITC and propidium iodide based flow cytometry (reference value: 95.6 %). It is filed as functional. The conditions noted are these: read-out: Activity.
The test system of experiment [12] is A549. The experiment is described as follows: Induction of apoptosis in human A549 cells assessed as early apoptotic cells at 10 uM incubated for 48 hrs in presence of 10-hydroxyl-evodiamine by annexin V FITC and propidium iodide based flow cytometry (reference value: 2.13 %). It is filed as functional.
Experiment [13] relates to A549. The experiment is described as follows: Induction of apoptosis in human A549 cells assessed as late apoptotic cells at 10 uM incubated for 48 hrs in presence of 10-hydroxyl-evodiamine by annexin V FITC and propidium iodide based flow cytometry (reference value: 0.76 %). Type of experiment: functional.
Experiment [14] concerns A549. The experiment is described as follows: Induction of apoptosis in human A549 cells assessed as necrotic cells at 10 uM incubated for 48 hrs in presence of 10-hydroxyl-evodiamine by annexin V FITC and propidium iodide based flow cytometry (reference value: 1.49 %). Type of experiment: functional.
Experiment [15] relates to A549. The experiment can be described thus: Induction of cell cycle arrest in human A549 cells assessed as accumulation of cells at G0/G1 phase at 10 uM incubated for 48 hrs by flow cytometry analysis (reference value: 53.63%). Type of experiment: functional.
Experiment [16] deals with A549. The experiment can be described thus: Induction of cell cycle arrest in human A549 cells assessed as accumulation of cells at S phase at 10 uM incubated for 48 hrs by flow cytometry analysis (reference value: 46.37%). It is filed as functional.
Experiment [17] deals with A549. The experiment can be described thus: Induction of cell cycle arrest in human A549 cells assessed as accumulation of cells at G0/G1 phase at 10 uM incubated for 48 hrs in presence of 10-hydroxyl-evodiamine by flow cytometry analysis (reference value: 53.63%). It is filed as functional.
Experiment [18] has as its system A549. The experiment can be described thus: Induction of cell cycle arrest in human A549 cells assessed as accumulation of cells at S phase at 10 uM incubated for 48 hrs in presence of 10-hydroxyl-evodiamine by flow cytometry analysis (reference value: 46.37%). Type of experiment: functional.
The test system of experiment [19] is A549. The experiment can be described thus: cells. The conditions noted are these: Homo sapiens, A549, 48 h.
Description: Antiproliferative activity against human A549 cells assessed as inhibition of cell growth incubated for 48 hrs in presence of evodiamine by MTT assay
Experiment [20] deals with A549. The experiment can be described thus: cells. The conditions noted are these: Homo sapiens, A549, 48 h. This is another data set of the same source.
A short description of the next experiment: cells. The settings on record: Homo sapiens, Gefitinib-resistant PC9, 48 h.
Experiment [21] concerns NCI-H460. The experiment is described as follows: Antiproliferative activity against human NCI-H460 cells assessed as inhibition of cell growth incubated for 48 hrs by MTT assay. The settings on record: NCI-H460, 48 h. Type of experiment: functional, cell-based.
The test system of experiment [22] is A549. The experiment is described as follows: Antiproliferative activity against human A549 cells assessed as inhibition of cell growth incubated for 48 hrs in presence of erlotinib by MTT assay. Type of experiment: functional, cell-based. The settings on record: A549, 48 h.
Experiment [23] concerns NCI-H460. The experiment can be described thus: Antiproliferative activity against human NCI-H460 cells assessed as inhibition of cell growth incubated for 48 hrs in presence of erlotinib by MTT assay. Type of experiment: functional, cell-based. The conditions noted are these: NCI-H460, 48 h.
Experiment [24] has as its system PC-9. The experiment is described as follows: Antiproliferative activity against human PC-9 cells assessed as inhibition of cell growth incubated for 48 hrs in presence of erlotinib by MTT assay. Type of experiment: functional, cell-based. The conditions noted are these: PC-9, 48 h.
Experiment [25] can be described thus: Antiproliferative activity against human PC9 Gefitinib-resistant (GR) cell assessed as inhibition of cell growth incubated for 48 hrs in presence of erlotinib by MTT assay. The settings on record: Gefitinib-resistant PC9, 48 h. It is filed as functional, cell-based.
Experiment [26] has as its system A549. The experiment can be described thus: Induction of apoptosis in human A549 cells assessed as viable cells at 10 uM incubated for 48 hrs in presence of erlotinib by annexin V FITC and propidium iodide based flow cytometry (reference value: 95.6 %). Type of experiment: functional. The settings on record: read-out: Activity.
Experiment [27] relates to A549. The experiment can be described thus: Induction of apoptosis in human A549 cells assessed as early apoptotic cells at 10 uM incubated for 48 hrs in presence of erlotinib by annexin V FITC and propidium iodide based flow cytometry (reference value: 2.13 %). Type of experiment: functional.
The subject of experiment [28] is A549. The experiment is described as follows: Induction of apoptosis in human A549 cells assessed as late apoptotic cells at 10 uM incubated for 48 hrs in presence of erlotinib by annexin V FITC and propidium iodide based flow cytometry (reference value: 0.76 %). Type of experiment: functional.
The test system of experiment [29] is A549. The experiment can be described thus: Induction of apoptosis in human A549 cells assessed as necrotic cells at 10 uM incubated for 48 hrs in presence of erlotinib by annexin V FITC and propidium iodide based flow cytometry (reference value: 1.49 %). Type of experiment: functional.
For experiment [30], the system named is A549. The experiment can be described thus: Induction of cell cycle arrest in human A549 cells assessed as accumulation of cells at G0/G1 phase at 10 uM incubated for 48 hrs in presence of erlotinib by flow cytometry analysis (reference value: 53.63%). Type of experiment: functional.
Experiment [31] relates to A549. The experiment can be described thus: Induction of cell cycle arrest in human A549 cells assessed as accumulation of cells at S phase at 10 uM incubated for 48 hrs in presence of erlotinib by flow cytometry analysis (reference value: 46.37%). Type of experiment: functional.
In experiment [32] the test system is A549. The experiment can be described thus: Induction of apoptosis in human A549 cells assessed as increase in bax protein expression at 10 uM incubated for 48 hrs by Western blot analysis. It is filed as functional, cell-based. For orientation: Immunoblotting shows a protein as a band on a membrane.
For experiment [33], the system named is A549. The experiment can be described thus: Induction of apoptosis in human A549 cells assessed as decrease in bcl-2 protein expression at 10 uM incubated for 48 hrs by Western blot analysis. Type of experiment: functional, cell-based.
Experiment [34] concerns A549. The experiment is described as follows: Induction of apoptosis in human A549 cells assessed as increase in p53 protein expression at 10 uM incubated for 48 hrs by Western blot analysis. It is filed as functional, cell-based.
Experiment [35] has as its system A549. The experiment is described as follows: Induction of apoptosis in human A549 cells assessed as upregulation of caspase-3 protein expression at 10 uM incubated for 48 hrs by Western blot analysis. Type of experiment: functional, cell-based.
For experiment [36], the system named is A549. The experiment can be described thus: Induction of apoptosis in human A549 cells assessed as upregulation of caspase-9 protein expression at 10 uM incubated for 48 hrs by Western blot analysis. Type of experiment: functional, cell-based.
For experiment [37], the system named is A549. The experiment is described as follows: Induction of apoptosis in human A549 cells assessed as downregulation of EGFR expression level at 10 uM incubated for 48 hrs by Western blot analysis. It is filed as functional, cell-based.

Drawing on ChEMBL document CHEMBL5584219 (Bioorg Med Chem Lett, 2024), this text covers IC50, viability and Activity for 4 molecules.

Active and inactive are the calls of the source. The rule behind the calls is not given here.

As a reminder, the IC50 is the concentration that gives 50% inhibition. Consider `C#Cc1cccc(Nc2ncnc3cc(OCCOC)c(OCCOC)cc23)c1` [ERLOTINIB], for which the IC50 with A549 [1] came to 23.5 µM; in the experiment on PC-9 [2], 1.8 µM; in experiment [3], 6.92 µM; with PC-9 [4], 2.37 µM; in experiment [5], 4.81 µM; in the experiment with PC-9 [6] it was 1.72 µM. In addition, the IC50 with A549 [19] was determined as 9.19 µM; with A549 [20], 7.74 µM; in the experiment “cells” it was 3.05 µM. Further, the viability at 10 µM with A549 [7] was 93%; in the experiment on A549 [11] it was 62%. For the same molecule, the Activity in the experiment with A549 [8] is listed as 4.82%; with A549 [9], 1.21%; in the experiment on A549 [10], 1%; in the experiment on A549 [12], 34.6%; with A549 [13] it was 2.12%; in the experiment with A549 [14] it was 1.26%. The Activity with A549 [15] came to 61.87%; with A549 [16], 37.13%; with A549 [17] it was 89.36%; with A549 [18], 10.64%.

For the molecule `CN1c2ccccc2C(=O)N2CCc3c([nH]c4ccc(O)cc34)[C@H]21`, the IC50 in the experiment with A549 [1] is 11.1 µM; in the experiment with NCI-H460 [21], 27.8 µM; in the experiment on PC-9 [2], 10.7 µM; in experiment [3] it was 10 µM; in the experiment on A549 [22] it was 7.74 µM; with NCI-H460 [23], 12.8 µM. Moreover, the IC50 with PC-9 [24] is 1.72 µM; in experiment [25] it was 3.05 µM. For the same molecule, the viability at 10 µM with A549 [7] turned out to be 70.2%; in the experiment on A549 [26], 62%. Moreover, the Activity in the experiment with A549 [8] is on record as 27.8%; in the experiment with A549 [9] it was 1.7%; in the experiment on A549 [10] it was 0.34%; with A549 [27], 34.6%; in the experiment on A549 [28] it was 2.12%; with A549 [29] it was 1.26%. Further, the Activity came to 78.23% in the experiment with A549 [15], 21.77% with A549 [16], 89.36% in the experiment with A549 [30] and 10.64% in the experiment with A549 [31].

Take `COCCOc1cc2ncnc(Nc3cccc(-c4cn(CCOCCOCCOCCNC(=O)Cn5c(C)c(COC(=O)N(C)CCN(C)C(=O)Oc6ccc7[nH]c8c(c7c6)CCN6C(=O)c7ccccc7N(C)[C@H]86)c6c5C(=O)C=C(OC)C6=O)nn4)c3)c2cc1OCCOC`: the IC50 came out at 3.79 µM in the experiment on A549 [1], 10.6 µM with NCI-H460 [21], 1.14 µM in the experiment with PC-9 [2] and 4.14 µM in [3]. Also, in the experiment on A549 [7], the viability at 10 µM was 77.4%. Also, the Activity in the experiment with A549 [8] is 20.9%; with A549 [9], 1.07%; in the experiment with A549 [10], 0.65%; in the experiment with A549 [15] it was 62.7%; with A549 [16] it was 37.3%. The outcome with A549 [32], in the experiment with A549 [33], in the experiment with A549 [34], with A549 [35], in the experiment on A549 [36] and in the experiment with A549 [37] was Active.

As for `CN1c2ccccc2C(=O)N2CCc3c([nH]c4ccccc34)[C@H]21`, the IC50 stood at 24.7 µM with A549 [1]; 17.1 µM with NCI-H460 [21]; 10.2 µM with PC-9 [2]; 11.3 µM in [3]; 9.19 µM in the experiment on A549 [22]; 13.4 µM with NCI-H460 [23]. Also, the IC50 in the experiment with PC-9 [24] came out at 2.37 µM; in [25], 4.81 µM.
